Assay results from the NIST ThermoML archive (doi:10.1021/je900387e).

Assay: xn = mol fraction of the nth substance listed
Details: Liquid, Pycnometric method

CCCCBr [1-bromobutane] + O=C=O
mass density [kg/m3]
Details	313.1 K	316.1 K
7910 kPa, x1 = 0.0461	769	–
7950 kPa, x1 = 0.0683	826	–
7990 kPa, x1 = 0.0245	619	–
8000 kPa, x1 = 0.0245	621	–
8010 kPa, x1 = 0.0461	775	–
8030 kPa, x1 = 0.0245	628	–
8060 kPa, x1 = 0.0683	829	–
8070 kPa, x1 = 0.0245	635	–
8090 kPa, x1 = 0.1495	1001	–
8100 kPa, x1 = 0.0245	641	–
8100 kPa, x1 = 0.0461	780	–
8140 kPa, x1 = 0.0245	649	–
8170 kPa, x1 = 0.0683	832	–
8170 kPa, x1 = 0.0989	893	–
8190 kPa, x1 = 0.0245	656	–
8240 kPa, x1 = 0.0245	663	–
8240 kPa, x1 = 0.0461	786	–
8270 kPa, x1 = 0.0245	–	528
8280 kPa, x1 = 0.0245	–	532
8290 kPa, x1 = 0.0683	835	–
8300 kPa, x1 = 0.0245	671	537
8320 kPa, x1 = 0.0245	–	543
8340 kPa, x1 = 0.0245	–	549
8360 kPa, x1 = 0.0245	679	556
8360 kPa, x1 = 0.0461	791	–
8380 kPa, x1 = 0.0245	–	562
8390 kPa, x1 = 0.0683	838	–
8410 kPa, x1 = 0.0245	–	572
8430 kPa, x1 = 0.0245	687	–
8460 kPa, x1 = 0.0245	–	582
8460 kPa, x1 = 0.1495	1004	–
8500 kPa, x1 = 0.0461	797	–
8530 kPa, x1 = 0.0245	695	–
8540 kPa, x1 = 0.0683	842	–
8560 kPa, x1 = 0.0989	900	–
8620 kPa, x1 = 0.0245	703	–
8650 kPa, x1 = 0.0461	802	–
8660 kPa, x1 = 0.0683	845	–
8740 kPa, x1 = 0.0245	712	–
8790 kPa, x1 = 0.0683	848	–
8790 kPa, x1 = 0.1495	1008	–
8840 kPa, x1 = 0.0461	808	–
8860 kPa, x1 = 0.0245	720	–
8930 kPa, x1 = 0.0683	851	–
9010 kPa, x1 = 0.0245	729	–
9030 kPa, x1 = 0.0989	907	–
9040 kPa, x1 = 0.0461	814	–
9110 kPa, x1 = 0.0683	854	–
9180 kPa, x1 = 0.0245	738	–
9240 kPa, x1 = 0.0461	820	–
9260 kPa, x1 = 0.0683	858	–
9380 kPa, x1 = 0.0245	748	–
9440 kPa, x1 = 0.0683	861	–
9470 kPa, x1 = 0.0461	826	–
9480 kPa, x1 = 0.0989	913	–
9540 kPa, x1 = 0.1495	1015	–
9580 kPa, x1 = 0.0683	864	–
9600 kPa, x1 = 0.0245	758	–
9710 kPa, x1 = 0.0461	833	–
9790 kPa, x1 = 0.0683	868	–
9850 kPa, x1 = 0.0245	767	–
9950 kPa, x1 = 0.1495	1018	–
9990 kPa, x1 = 0.0461	840	–
10020 kPa, x1 = 0.0989	920	–
10150 kPa, x1 = 0.0245	778	–
10330 kPa, x1 = 0.1495	1022	–
10450 kPa, x1 = 0.0245	788	–
10600 kPa, x1 = 0.0989	927	–
10770 kPa, x1 = 0.1495	1026	–
10840 kPa, x1 = 0.0245	799	–
11180 kPa, x1 = 0.0989	933	–
11240 kPa, x1 = 0.1495	1030	–
11280 kPa, x1 = 0.0245	810	–
11690 kPa, x1 = 0.1495	1033	–
11760 kPa, x1 = 0.0245	821	–
11850 kPa, x1 = 0.0989	941	–
12120 kPa, x1 = 0.1495	1036	–
12160 kPa, x1 = 0.0989	944	–
12320 kPa, x1 = 0.0245	833	–
12560 kPa, x1 = 0.0989	948	–
12600 kPa, x1 = 0.1495	1040	–
12960 kPa, x1 = 0.0245	845	–
13090 kPa, x1 = 0.1495	1044	–
13640 kPa, x1 = 0.1495	1047	–
13700 kPa, x1 = 0.0245	857	–
14170 kPa, x1 = 0.1495	1051	–
14530 kPa, x1 = 0.0245	870	–
14740 kPa, x1 = 0.1495	1056	–
14980 kPa, x1 = 0.0245	876	–
15070 kPa, x1 = 0.1495	1058	–
15150 kPa, x1 = 0.0245	879	–
15320 kPa, x1 = 0.1495	1060	–
